# Where two headings read alike, the source gives them in different places.
# Assays:
# [1] = target: hA1AR (Homo sapiens (Human), UniProt P30542); test: Radioligand binding at hA1AR, CHO cell membranes, [3H]R-PIA; details: for inhibition at 10 µM: read-out: hA1AR % inhibition
# [2] = target: hA2AAR (Homo sapiens (Human), UniProt P29274); test: Radioligand binding at hA2AAR, HEK293 cell membranes, [3H]CGS21680; details: read-out: hA2AAR % inhibition
# [3] = target: mA1AR (Mus musculus (Mouse), UniProt Q60612); test: Competition binding at mA1AR, HEK293 cell membranes
# mA1AR, sequence (Q60612 whole entry): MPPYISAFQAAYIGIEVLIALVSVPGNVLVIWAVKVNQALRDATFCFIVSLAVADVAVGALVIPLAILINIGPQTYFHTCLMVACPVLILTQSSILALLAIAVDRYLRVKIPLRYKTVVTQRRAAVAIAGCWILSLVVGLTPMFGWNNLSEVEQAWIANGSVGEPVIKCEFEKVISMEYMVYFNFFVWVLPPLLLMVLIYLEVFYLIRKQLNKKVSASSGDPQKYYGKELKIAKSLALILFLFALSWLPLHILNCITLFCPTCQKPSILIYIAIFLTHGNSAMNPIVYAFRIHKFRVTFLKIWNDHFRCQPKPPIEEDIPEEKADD
# [4] = target: mA2AAR (Mus musculus (Mouse), UniProt Q60613); test: Competition binding at mA2AAR, HEK293 cell membranes; details: for inhibition at 10 µM: read-out: A2AAR % inhibition, mouse data (m) (converted)
# mA2AAR, sequence (Q60613 whole entry): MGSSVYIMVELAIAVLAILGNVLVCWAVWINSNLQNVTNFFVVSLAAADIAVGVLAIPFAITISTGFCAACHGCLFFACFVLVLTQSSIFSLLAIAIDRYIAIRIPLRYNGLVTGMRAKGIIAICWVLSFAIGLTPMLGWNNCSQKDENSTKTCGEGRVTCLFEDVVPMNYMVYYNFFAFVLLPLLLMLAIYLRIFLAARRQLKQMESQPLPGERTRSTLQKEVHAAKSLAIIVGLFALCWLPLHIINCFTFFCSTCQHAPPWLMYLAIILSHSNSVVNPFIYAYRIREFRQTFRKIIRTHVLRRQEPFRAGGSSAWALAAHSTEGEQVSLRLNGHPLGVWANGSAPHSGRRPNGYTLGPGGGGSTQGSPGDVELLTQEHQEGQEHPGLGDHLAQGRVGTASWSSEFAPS
# [5] = system: chronic constriction injury model of neuropathic pain; test: CCI model of neuropathic pain, reversal of mechano-allodynia; type: in vivo, mice; details: for Effect at 3 h (% ± SEM) / Max. effect Emax (% ± SEM) / Time of peak protection: 3 μmol/kg p.o., mice; for Max. effect Emax (% ± SEM) / Time of peak protection: ipsilateral hind paw; for Efficacy in reversing NP in vivo (of full reversal at peak effect): CCI model
# [6] = target: r Sigma 1 (Rattus norvegicus (Rat), UniProt Q9R0C9); test: Off-target binding, Sigma-1
# r Sigma 1, sequence (Q9R0C9 whole entry): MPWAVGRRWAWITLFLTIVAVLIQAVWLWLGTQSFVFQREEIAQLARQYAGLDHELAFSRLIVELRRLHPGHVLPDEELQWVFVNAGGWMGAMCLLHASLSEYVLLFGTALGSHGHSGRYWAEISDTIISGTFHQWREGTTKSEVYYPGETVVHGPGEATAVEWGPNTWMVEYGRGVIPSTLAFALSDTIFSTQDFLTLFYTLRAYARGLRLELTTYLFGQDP
# Text: (§1) The results are set forth below.
# [7] = target: r Sigma 2 (Rattus norvegicus (Rat), UniProt Q5U3Y7); test: Off-target binding, Sigma-2
# r Sigma 2, sequence (Q5U3Y7 whole entry): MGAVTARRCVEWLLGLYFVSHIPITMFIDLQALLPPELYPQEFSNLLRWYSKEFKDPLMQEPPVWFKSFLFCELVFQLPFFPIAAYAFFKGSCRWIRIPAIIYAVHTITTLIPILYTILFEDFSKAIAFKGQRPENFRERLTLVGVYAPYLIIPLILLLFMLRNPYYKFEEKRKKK
# Text: as §1
# [8] = target: PBR (Homo sapiens (Human), UniProt P30536); test: Off-target binding, PBR; details: at 10 μM
# Text: as §1
# [9] = target: human DAT (Homo sapiens (Human), UniProt Q01959); test: Radioligand ([3H]WIN35428) binding at the dopamine transporter; details: for Ki: off-target binding
# human DAT, sequence (Q01959 whole entry): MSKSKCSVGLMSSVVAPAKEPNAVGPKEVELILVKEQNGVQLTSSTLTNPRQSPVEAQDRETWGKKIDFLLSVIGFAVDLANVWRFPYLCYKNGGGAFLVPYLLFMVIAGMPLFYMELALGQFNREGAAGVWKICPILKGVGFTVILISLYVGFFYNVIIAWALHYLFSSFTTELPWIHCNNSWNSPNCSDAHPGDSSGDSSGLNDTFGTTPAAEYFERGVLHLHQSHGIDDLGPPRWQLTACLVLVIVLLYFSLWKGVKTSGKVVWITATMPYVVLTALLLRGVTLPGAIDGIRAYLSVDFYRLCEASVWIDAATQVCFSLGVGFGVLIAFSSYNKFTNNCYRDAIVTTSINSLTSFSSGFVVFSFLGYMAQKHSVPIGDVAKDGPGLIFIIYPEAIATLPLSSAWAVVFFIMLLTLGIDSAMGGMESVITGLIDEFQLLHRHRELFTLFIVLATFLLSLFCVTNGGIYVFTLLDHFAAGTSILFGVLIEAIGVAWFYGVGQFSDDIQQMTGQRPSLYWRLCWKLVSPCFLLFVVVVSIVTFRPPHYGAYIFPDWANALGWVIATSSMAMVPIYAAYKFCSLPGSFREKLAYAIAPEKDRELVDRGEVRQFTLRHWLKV
# [10] = system: muscarinic, adrenergic, dopamine, GABA, histamine, opiate, serotonin receptors and transporters; test: Off-target binding panel (receptors and transporters of Table 5); details: for Interactions at other receptors of the off-target panel: 10 μM
# Text: as §1
# [11] = Aqueous solubility; type: physicochemical
# [12] = Stability in simulated fluids (gastric, intestinal); type: in vitro ADME
# Text: (§2) In vitro stability parameters for selected compounds are set forth in Table 6, in accordance with an embodiment of the invention.
# [13] = % Unbound in plasma, mouse; type: in vitro ADME
# [14] = system: CYP1A2, CYP2C9, CYP2C19, CYP2D6, CYP3A4; test: Inhibition of 5 CYP isozymes; type: in vitro ADME; details: human
# [15] = Stability in liver microsomes, human; type: in vitro ADME; details: for half-life: liver microsomes, read-out: Stability in liver microsomes (t1/2, min): Human
# [16] = Stability in liver microsomes, rat; type: in vitro ADME; details: for half-life: liver microsomes, read-out: Stability in liver microsomes (t1/2, min): Rat
# [17] = Stability in liver microsomes, mouse; type: in vitro ADME; details: for half-life: liver microsomes, read-out: Stability in liver microsomes (t1/2, min): Mouse
# [18] = system: chronic constriction injury (CCI) model, mechano-allodynia; test: Morphine analgesic tolerance in CCI model, co-administration with A3AR agonist; type: in vivo, mice
# [19] = Bioavailability / plasma pharmacokinetics; type: in vivo; details: rat, male SD rats
# Method: Male SD rats were dosed intravenously at 1 mg/kg and orally at 1, 3, and 10 mg/kg. Plasma concentration as a function of time is depicted in FIG. 15.
# [20] = system: C57BL/6J mice; details: mouse, in vivo, 50 mg/kg
# [21] = system: C57BL/6J mice; test: Acute liver toxicity, oral gavage; details: 50 mg/kg oral gavage, 24 h
# [22] = target: hA3AR (Homo sapiens (Human), UniProt P0DMS8); test: Radioligand binding at hA3AR, CHO cell membranes, [125I]I-AB-MECA
# [23] = target: mA3AR (Mus musculus (Mouse), UniProt Q61618); test: Competition binding at mA3AR, HEK293 cell membranes
# mA3AR, sequence (Q61618 whole entry): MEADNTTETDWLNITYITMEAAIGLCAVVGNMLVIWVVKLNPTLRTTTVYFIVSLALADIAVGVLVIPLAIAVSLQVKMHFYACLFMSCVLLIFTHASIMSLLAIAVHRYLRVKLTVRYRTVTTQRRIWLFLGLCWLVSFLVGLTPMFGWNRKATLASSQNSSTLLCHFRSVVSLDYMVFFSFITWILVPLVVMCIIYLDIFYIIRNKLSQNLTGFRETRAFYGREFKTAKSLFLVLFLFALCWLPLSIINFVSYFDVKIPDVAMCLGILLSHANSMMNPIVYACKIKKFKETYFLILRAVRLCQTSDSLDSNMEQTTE
# [24] = target: Alpha 2B adrenergic receptor (Homo sapiens (Human), UniProt P18089); test: Off-target binding, α2B; details: read-out: Ki at α2B
# Text: as §1
# [25] = target: Alpha 2C adrenergic receptor (Homo sapiens (Human), UniProt P18825); test: Off-target binding, α2C; details: read-out: Ki at α2C
# Alpha 2C adrenergic receptor, sequence (P18825 whole entry): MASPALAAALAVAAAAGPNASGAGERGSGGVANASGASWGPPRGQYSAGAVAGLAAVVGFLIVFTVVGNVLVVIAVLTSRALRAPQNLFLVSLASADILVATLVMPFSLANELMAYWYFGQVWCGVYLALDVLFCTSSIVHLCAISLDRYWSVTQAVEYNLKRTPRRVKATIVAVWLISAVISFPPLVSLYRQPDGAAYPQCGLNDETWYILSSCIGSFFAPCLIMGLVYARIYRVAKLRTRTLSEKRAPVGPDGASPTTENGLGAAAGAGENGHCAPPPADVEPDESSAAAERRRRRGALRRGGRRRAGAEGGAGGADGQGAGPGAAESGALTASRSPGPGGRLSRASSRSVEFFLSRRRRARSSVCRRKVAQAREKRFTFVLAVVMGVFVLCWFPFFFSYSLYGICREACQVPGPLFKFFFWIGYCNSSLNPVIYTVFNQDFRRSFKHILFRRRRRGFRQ
# Text: as §1
# [26] = target: 5HT2A; test: Off-target binding, 5HT2A
# [27] = target: h5HT2B (Homo sapiens (Human), UniProt P41595); test: Off-target binding, 5HT2B; details: read-out: Ki at 5HT2B
# h5HT2B, sequence (P41595 whole entry): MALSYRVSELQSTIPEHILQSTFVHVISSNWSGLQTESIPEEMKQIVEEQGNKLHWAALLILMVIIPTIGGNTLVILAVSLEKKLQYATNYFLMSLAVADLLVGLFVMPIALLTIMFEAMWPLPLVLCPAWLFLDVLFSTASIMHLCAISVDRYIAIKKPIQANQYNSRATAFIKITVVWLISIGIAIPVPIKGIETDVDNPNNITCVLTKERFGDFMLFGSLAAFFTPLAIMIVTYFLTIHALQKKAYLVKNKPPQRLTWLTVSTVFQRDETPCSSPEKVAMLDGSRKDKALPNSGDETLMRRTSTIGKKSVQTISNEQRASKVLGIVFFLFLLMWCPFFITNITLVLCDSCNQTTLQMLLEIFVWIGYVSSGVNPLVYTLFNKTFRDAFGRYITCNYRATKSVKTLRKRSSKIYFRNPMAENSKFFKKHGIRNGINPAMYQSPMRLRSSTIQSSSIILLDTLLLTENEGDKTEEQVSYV
# [28] = target: h5HT6 (Homo sapiens (Human), UniProt P50406); test: Off-target binding, 5HT6
# [29] = target: h5HT7 (Homo sapiens (Human), UniProt P34969); test: Off-target binding, 5HT7
# [30] = target: hH1 histamine receptor (Homo sapiens (Human), UniProt P35367); test: Off-target binding, H1
# [31] = target: hM1 muscarinic receptor (Homo sapiens (Human), UniProt P11229); test: Off-target binding, M1
# Text: as §1
# [32] = target: hM3 muscarinic receptor (Homo sapiens (Human), UniProt P20309); test: Off-target binding, M3
# [33] = target: hM4 muscarinic receptor (Homo sapiens (Human), UniProt P08173); test: Off-target binding, M4
# [34] = % Unbound in plasma, human; type: in vitro ADME
# [35] = % Unbound in plasma, rat; type: in vitro ADME
# [36] = system: 5 CYP isozymes (1A2, 2C9, 2C19, 2D6, 3A4); test: Inhibition of 5 CYP isozymes; type: in vitro ADME; details: read-out: Inhibition of 5 CYP isozymes: IC50
# [37] = target: CYP 3A4 (Homo sapiens (Human), UniProt P08684); test: CYP inhibition, 3A4; type: in vitro ADME
# Text: as §2
# [38] = target: Alpha 1B adrenergic receptor (Homo sapiens (Human), UniProt P35368); test: Off-target binding, α1B
# Alpha 1B adrenergic receptor, sequence (P35368 whole entry): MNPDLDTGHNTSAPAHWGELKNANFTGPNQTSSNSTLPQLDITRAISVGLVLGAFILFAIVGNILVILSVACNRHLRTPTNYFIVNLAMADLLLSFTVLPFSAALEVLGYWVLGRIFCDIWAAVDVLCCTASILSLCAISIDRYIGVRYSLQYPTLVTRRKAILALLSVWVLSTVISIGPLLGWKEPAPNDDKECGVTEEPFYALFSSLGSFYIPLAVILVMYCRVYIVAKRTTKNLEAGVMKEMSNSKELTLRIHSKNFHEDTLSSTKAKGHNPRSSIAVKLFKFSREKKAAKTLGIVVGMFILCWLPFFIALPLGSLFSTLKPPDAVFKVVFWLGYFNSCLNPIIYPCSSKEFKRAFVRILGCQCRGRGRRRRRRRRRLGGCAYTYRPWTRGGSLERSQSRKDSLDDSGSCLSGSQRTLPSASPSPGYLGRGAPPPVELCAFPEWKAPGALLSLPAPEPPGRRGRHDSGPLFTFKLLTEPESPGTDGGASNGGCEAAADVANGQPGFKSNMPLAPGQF
# Text: as §1
# [39] = target: α1D adrenergic receptor (Homo sapiens (Human), UniProt P25100); test: Off-target binding, α1D
# Text: as §1
# [40] = target: Alpha 2A adrenergic receptor (Homo sapiens (Human), UniProt P08913); test: Off-target binding, α2A
# Text: as §1
# [41] = target: SERT (Homo sapiens (Human), UniProt P31645); test: Off-target binding, SERT
# SERT, sequence (P31645 whole entry, species assumed): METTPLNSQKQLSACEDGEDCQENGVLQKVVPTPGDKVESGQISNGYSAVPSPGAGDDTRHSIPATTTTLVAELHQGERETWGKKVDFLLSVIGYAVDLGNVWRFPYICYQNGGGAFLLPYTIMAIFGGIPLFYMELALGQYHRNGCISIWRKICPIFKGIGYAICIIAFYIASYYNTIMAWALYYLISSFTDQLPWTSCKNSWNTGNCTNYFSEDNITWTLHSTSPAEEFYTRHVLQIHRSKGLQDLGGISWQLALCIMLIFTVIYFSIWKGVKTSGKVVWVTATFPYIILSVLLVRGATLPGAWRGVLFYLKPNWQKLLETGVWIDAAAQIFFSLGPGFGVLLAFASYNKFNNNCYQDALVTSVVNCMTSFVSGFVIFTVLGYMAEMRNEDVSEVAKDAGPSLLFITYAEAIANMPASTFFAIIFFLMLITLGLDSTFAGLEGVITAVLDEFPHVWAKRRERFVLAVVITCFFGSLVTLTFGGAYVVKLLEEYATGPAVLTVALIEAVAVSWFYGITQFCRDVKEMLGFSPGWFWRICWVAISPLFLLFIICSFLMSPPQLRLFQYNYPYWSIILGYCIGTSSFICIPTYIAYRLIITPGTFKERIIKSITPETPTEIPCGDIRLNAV
# Text: as §1
# [42] = simulated gastric fluid, read-out: Stability in simulated fluids (t1/2, min): Gastric
# [43] = simulated intestinal fluid, read-out: Stability in simulated fluids (t1/2, min): Intestinal
# [44] = mouse (m), inhibition of binding at 10 μM
# hA1AR, sequence (P30542 whole entry): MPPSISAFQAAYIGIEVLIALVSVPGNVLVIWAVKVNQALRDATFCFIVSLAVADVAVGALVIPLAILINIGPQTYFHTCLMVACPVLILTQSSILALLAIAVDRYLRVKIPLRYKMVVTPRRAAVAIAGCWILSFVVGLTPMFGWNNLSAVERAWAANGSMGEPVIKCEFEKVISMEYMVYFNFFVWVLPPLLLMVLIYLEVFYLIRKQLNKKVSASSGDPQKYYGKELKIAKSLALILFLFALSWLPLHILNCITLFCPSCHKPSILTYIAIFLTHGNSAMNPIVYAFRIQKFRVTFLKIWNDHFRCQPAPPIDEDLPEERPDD
# hA2AAR, sequence (P29274 whole entry): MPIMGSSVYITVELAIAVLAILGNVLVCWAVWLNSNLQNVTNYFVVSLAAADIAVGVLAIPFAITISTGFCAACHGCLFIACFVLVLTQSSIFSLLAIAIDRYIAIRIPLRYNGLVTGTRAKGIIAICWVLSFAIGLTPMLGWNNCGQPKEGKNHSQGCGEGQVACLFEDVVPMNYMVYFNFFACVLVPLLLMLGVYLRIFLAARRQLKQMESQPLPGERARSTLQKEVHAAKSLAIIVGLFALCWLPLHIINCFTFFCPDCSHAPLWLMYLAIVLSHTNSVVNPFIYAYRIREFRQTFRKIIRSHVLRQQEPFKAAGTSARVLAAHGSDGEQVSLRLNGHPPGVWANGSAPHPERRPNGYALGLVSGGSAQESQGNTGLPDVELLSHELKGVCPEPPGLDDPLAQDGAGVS
compound,measurement,setting,value
"CNC(=O)[C@@]12C[C@@H]1[C@@H](n1cnc3c(NC)nc(C#Cc4ccc(Cl)s4)nc31)[C@H](O)[C@@H]2O [Compound 32, (1S,2R,3S,4R,5S)-4-(2-((5-Chlorothiophen-2-yl)ethynyl)-6-(methylamino)-9H-purin-9-yl)-2,3-dihydroxy-N-methylbicyclo[3.1.0]hexane-1-carboxamide]",inhibition at 10 µM,[1],6%
same,inhibition at 10 µM,[2],24%
same,inhibition at 10 µM,"[3]; read-out: A1AR % inhibition, mouse data (m)",38%
same,inhibition at 10 µM,[4],7%
same,Effect at 3 h (% ± SEM),[5],83 ± 11%
same,Max. effect Emax (% ± SEM),[5],93 ± 7%
same,Time of peak protection,[5],0.5 to 3 h
same,Efficacy in reversing NP in vivo (of full reversal at peak effect),[5],~100%
same,inhibition at 10 µM,[6]; at 10 μM,60 to 70%
same,Ki,[6]; off-target binding,1.4 µM
same,inhibition at 10 µM,[7]; at 10 μM,60 to 70%
same,Ki,"[7]; off-target binding, read-out: Ki at Sigma-2 (σ2)",0.63 µM
same,inhibition at 10 µM,[8],60 to 70%
same,Increase of the level of radioligand ([3H]WIN35428) binding at the human DAT,[9]; 10 μM,556%
same,Enhancement of radioligand binding at the dopamine transporter,[9]; compound at 10 μM,~5 ×
same,Off-target effects compared with MRS5698 and MRS5676,[10],significantly fewer off-target effects
same,Interactions at other receptors of the off-target panel,[10],No interactions
same,"Aq. Solubility (pH 7.4, μg/mL)",[11],16.8 ± 1.1 μg/mL
same,half-life,[12]; [42],> 480 min
same,half-life,[12]; [43],> 480 min
same,% Unbound in plasma: Mouse,[13],6.40%
same,IC50,[14],> 10 µM
same,half-life,[15],230 min
same,half-life,[16],128 min
same,half-life,[17],143 min
same,Analgesic effect of the A3AR agonist dose per se,[18]; […],no analgesic effects per se
same,Effect on opioid-induced hypersensitivity and analgesic tolerance,"[18]; mouse, in vivo",block opioid-induced hypersensitivity and analgesic tolerance
same,half-life,"[19]; iv, i.v. 1 mg/kg",0.7 ± 0.3 h
same,half-life,"[19]; po, p.o. 1 mg/kg",3.6 ± 0.4 h
same,Cmax,"[19]; po, p.o. 1 mg/kg, read-out: Cmax nM",63 ± 19 nM
same,Cmax,"[19]; po, p.o. 1 mg/kg, read-out: Cmax ng/ml",29 ± 8.6 ng/mL
same,half-life,"[19]; po, p.o. 3 mg/kg",5.3 ± 0.8 h
same,Cmax,"[19]; po, p.o. 3 mg/kg, read-out: Cmax nM",101 ± 53 nM
same,Cmax,"[19]; po, p.o. 3 mg/kg, read-out: Cmax ng/ml",47 ± 24 ng/mL
same,half-life,"[19]; po, p.o. 10 mg/kg",7.8 ± 2 h
same,Cmax,"[19]; po, p.o. 10 mg/kg, read-out: Cmax nM",711 ± 125 nM
same,Cmax,"[19]; po, p.o. 10 mg/kg, read-out: Cmax ng/ml",326 ± 57 ng/mL
same,Acute liver toxicity,[20],no acute liver toxicity
same,GSH and GSSG levels in liver,[21],no alteration
same,Liver histology,[21],remained normal
"(1S,2R,3S,4R,5S)-4-(2-((Ferrocen-yl)ethynyl)-6-(methylamino)-9H-purin-9-yl)-2,3-dihydroxy-N-methylbicyclo[3.1.0]hexane-1-carboxamide [Compound 37]",hA1AR % inhibition,[1]; inhibition of binding at 10 μM,25 ± 2%
same,Ki,[22],0.00268 ± 0.00044 µM
same,Ki,[23],0.00546 ± 0.00067 µM
same,"A1AR % inhibition, mouse data (m)",[3]; [44],45% ± 2%
same,"A2AAR % inhibition, mouse data (m)",[4]; [44],4% ± 2%
same,Effect at 3 h (% ± SEM),[5],78 ± 3%
same,Max. effect Emax (% ± SEM),[5],94 ± 6%
same,Time of peak protection,[5],0.5 to 3 h
same,Efficacy in reversing NP in vivo (of full reversal at peak effect),[5],~100%
same,Ki,[24],< 10 µM
same,Ki,[25],< 10 µM
same,Ki,[26],< 10 µM
same,Ki,[27],< 10 µM
same,Ki,[28],< 10 µM
same,Ki,[29],< 10 µM
same,Ki,[30],< 10 µM
same,Ki,[31],< 10 µM
same,Ki,[32],< 10 µM
same,Ki,[33],< 10 µM
same,Off-target effects compared with MRS5698 and MRS5676,[10],significantly fewer off-target effects
same,Interactions at other receptors of the off-target panel,[10],No significant interactions
same,"Aq. Solubility (pH 7.4, μg/mL)",[11],14.5 ± 1.0 μg/mL
same,"Stability in simulated fluids (t1/2, min): Gastric",[12]; simulated gastric fluid,46.5 min
same,"Stability in simulated fluids (t1/2, min): Intestinal",[12]; simulated intestinal fluid,174 min
same,% Unbound in plasma: Human,[34],7.00%
same,% Unbound in plasma: Rat,[35],6.32%
same,% Unbound in plasma: Mouse,[13],4.85%
same,IC50,[36],> 9 µM
same,IC50,[37],9.4 µM
same,"Stability in liver microsomes (t1/2, min): Human",[15],3.66 min
same,"Stability in liver microsomes (t1/2, min): Rat",[16],6.64 min
same,"Stability in liver microsomes (t1/2, min): Mouse",[17],1.98 min
"CNC(=O)[C@@]12C[C@@H]1[C@@H](n1cnc3c(NC)nc(C#Cc4cnccn4)nc31)[C@H](O)[C@@H]2O [Compound 7, (1S,2R,3S,4R,5S)-2,3-Dihydroxy-N-methyl-4-(6-(methylamino)-2-(pyrazin-2-ylethynyl)-9H-purin-9-yl)bicyclo[3.1.0]hexane-1-carboxamide]",inhibition at 10 µM,[1],37%
same,inhibition at 10 µM,[2],25 ± 9%
same,Ki,[23],0.068 ± 0.005 µM
same,inhibition at 10 µM,[4],12%
same,Max. effect Emax (% ± SEM),[5],100 ± 0.0%
same,Time of peak protection,[5],1 h
same,Efficacy in reversing NP in vivo (of full reversal at peak effect),[5],~100%
same,Ki,[38]; read-out: Ki at α1B,9.4 µM
same,Ki,[38]; read-out: Ki class at α1B,1 to 10 µM
same,Ki,[39],4.3 µM
same,Ki,[40],7.9 µM
same,Ki,[25],6.8 µM
same,Ki,[41]; read-out: Ki at SERT,> 10 µM
same,Ki,[41]; read-out: Ki class at SERT,> 10 µM
same,Ki,[9]; read-out: Ki at DAT,1.8 µM
same,Ki,[9]; read-out: Ki class at DAT,1 to 10 µM
same,Off-target effects compared with MRS5698 and MRS5676,[10],significantly fewer off-target effects
same,Interactions at other receptors of the off-target panel,[10],No interactions at other receptors
same,half-life,[12]; [42],> 480 min
same,half-life,[12]; [43],> 480 min
same,IC50,[14],> 10 µM
same,half-life,[15],236 min
same,half-life,[16],> 145 min
same,half-life,[17],> 145 min

# Reference: US10577368B2 (The United States of America, as represented by the …, priority 2013, dated 2020)
